From patent US5523223A, “Ketoester reductase for conversion of keto acid esters to optically active hydroxy acid esters” (priority 1992, dated 1996)
Like-named read-outs stand apart in the source and are kept apart here.

Legend:
[1] = system: KERed from Candida parapsilosis; test: Kinetic characterization of the KERed; assay type: biochemical
[2] = system: KERed from C. parapsilosis; test: Inhibition study of the KERed (influence of metal cations and reagents); assay type: biochemical, Candida parapsilosis; conditions: for Influence on KERed activity (in words): summary statements of the inhibition study
Excerpt: (§1) For the following investigation, partially purified enzyme (after Q-sepharose chromatography, 67-times enrichment) was used. […]
5-oxohexanoic acid ethyl ester
TEA-NaOH-buffer, 0.1 M; pH 7.9
The influence of various metal cations and reagents upon the enzymatic activity was investigated in tests in which the test preparation described under example 3.B was used.

[3] = system: KERed from C. parapsilosis; test: Substrate spectrum of the KERed; assay type: biochemical, Candida parapsilosis; conditions: for Rel. Activity: substrate 8 mM, activity with 5-oxo-hexanoic acid ethyl ester = 100%, NADH 0.2 mM, pH 7.9; for Acceptance as substrate by the KERed (in words): reduction with NADH
Protocol: as §1
5-oxohexanoic acid ethyl ester […]
Corresponding to example 3.B, instead of 5-oxohexanoic acid ethyl ester a series of aromatic and aliphatic ketoesters, ketoacids, ketones, diketones and aldehydes were investigated as to whether they could be reduced enzymatically. For this the compounds were added always in 8 mM final concentration. […] The activity with 5-oxo-hexanoic acid ethyl ester was arbitrarily selected as 100%.

[4] = referred to 2-butanone, partially purified enzyme
[5] = compound 0.1 mM, 35 mM 5-oxohexanoic acid ethyl ester, 0.2 mM NADH, pH 7.9
[6] = compound 1.0 mM, 35 mM 5-oxohexanoic acid ethyl ester, 0.2 mM NADH, pH 7.9

## CCCCO [1-butanol]
[1]; partially purified enzyme
  Km: 2900 µM
[1]; [4]
  Vmax: 47%

## [Mg+2] [Mg^2+]
[2]; [5]
  Residual Activity: 91%
[2]; [6]
  Residual Activity: 82%

## CCC(=O)CC(=O)OC
[3]
  Rel. Activity: 18%

## CCOC(=O)CC(=O)c1ccccc1
[3]
  Rel. Activity: 0%

## CCCCCCCCC(C)=O [2-decanone]
[1]; partially purified enzyme
  Km: 3960 µM
[1]; [4]
  Vmax: 20%

## COC(OC)C(C)=O [drawing 44]
[3]
  Rel. Activity: 118%

## CCOC(=O)OC(=O)OCC [Diethyl Pyrocarbonate]
[2]; [5]
  Residual Activity: 100%
[2]; [6]
  Residual Activity: 100%

## CC1CCCCC1=O (centres unmarked)
[3]
  Rel. Activity: 12%

## CCC(=O)C(C)C [2-methyl-3-pentanone]
[3]
  Acceptance as substrate by the KERed (in words): acceptable as substrates

## O=C1Nc2ccccc2C1=O
[3]
  Rel. Activity: 0%

## CCOC(=O)CC(=O)C(C)C
[3]
  Rel. Activity: 24%

## CC(=O)c1cccc(Cl)c1 [drawing 28]
[3]
  Rel. Activity: 35%

## CO [Methanol]
[1]; [4]
  Vmax: No Reaction

## CC(=O)c1ccc(Br)cc1 [drawing 29]
[3]
  Rel. Activity: 40%

## CCC(C)=O [2-Butanone]
[3]
  Acceptance as substrate by the KERed (in words): acceptable as substrates
[1]; partially purified enzyme
  Km: 1480 µM
  Vmax of the reference substrate: 6 U mg
[1]; [4]
  Vmax: 100%

## O[C@@H](CS)[C@@H](O)CS (racemic) [1,4-Dithiothreitol]
[2]; [5]
  Residual Activity: 100%
[2]; [6]
  Residual Activity: 100%
[2]
  Influence on KERed activity (in words): Stabilization

## CC(C)C=O [drawing 48]
[3]
  Rel. Activity: 178%

## CC(=O)C=O [Methylglyoxal]
[2]; [5]
  Residual Activity: 100%
[2]; [6]
  Residual Activity: 34%

## N[C@@H](CCC(=O)N[C@@H](CS)C(=O)NCC(=O)O)C(=O)O [Glutathione (reduced), Glutathione]
[2]; [5]
  Residual Activity: 100%
[2]; [6]
  Residual Activity: 100%

## COC(=O)CC(C)=O
[3]
  Rel. Activity: 67%

## O=C1CCCC(=O)C1
[3]
  Rel. Activity: 0%

## [Hg+2] [Hg^2+]
[2]; [5]
  Residual Activity: 0%
[2]; [6]
  Residual Activity: 0%
[2]
  Influence on KERed activity (in words): Rapid deactivation

## CCCCC(C)=O [2-hexanone]
[1]; partially purified enzyme
  Km: 54 µM
[1]; [4]
  Vmax: 53%

## CC(=O)CCC(=O)O [drawing 6]
[3]
  Rel. Activity: 0%

## COCC(C)=O [drawing 35]
[3]
  Rel. Activity: 53%

## CC(=O)c1ccc(F)cc1 [drawing 30]
[3]
  Rel. Activity: 40%

## CC(=O)c1ccc(F)cc1 [4-fluoroacetophenone]
[3]
  Acceptance as substrate by the KERed (in words): acceptable as substrates

## CC(=O)c1ccc(Cl)cc1 [4-chloro-acetophenone]
[1]; partially purified enzyme
  Km: 10 µM
[1]; [4]
  Vmax: 19%

## CCOC(=O)CC(=O)C(F)(F)F [Ethyl 4-trifluor-3-oxo-butanoate]
[1]; partially purified enzyme
  Km: 2000 µM
[1]; [4]
  Vmax: 11%

## COC(CC(C)=O)OC
[3]
  Rel. Activity: 14%

## CC(=O)c1ccccc1 [drawing 26]
[3]
  Rel. Activity: 34%

## CC(=O)CC(C)=O [2,4-pentanedione]
[3]
  Acceptance as substrate by the KERed (in words): acceptable as substrates

## CCCCC(=O)CC [3-heptanone]
[1]; partially purified enzyme
  Km: 5600 µM
[1]; [4]
  Vmax: 11%

## CCCC(=O)CC(=O)OCC [drawing 14]
[3]
  Rel. Activity: 51%

## CC1CCC(=O)CC1
[3]
  Rel. Activity: 40%

## CC(=O)C(C)Cl (centres unmarked) [3-chloro-2-butanone]
[3]
  Acceptance as substrate by the KERed (in words): acceptable as substrates
[1]; partially purified enzyme
  Km: 442 µM
[1]; [4]
  Vmax: 50%

## CC(=O)c1ccc(Br)cc1 [4-bromoacetophenone]
[3]
  Acceptance as substrate by the KERed (in words): acceptable as substrates

## [Fe+3] [Fe^3+]
[2]; [5]
  Residual Activity: 100%

## CC(=O)c1ccccc1 [Acetophenone]
[3]
  Acceptance as substrate by the KERed (in words): acceptable as substrates
[1]; partially purified enzyme
  Km: 49 µM
[1]; [4]
  Vmax: 22%

## [Sn+2] [Sn^2+]
[2]; [5]
  Residual Activity: 73%
[2]; [6]
  Residual Activity: 0%
[2]
  Influence on KERed activity (in words): Rapid deactivation

## COC(OC)C(C)=O [Pyruvaldehyde-Dimethyl-acetal]
[1]; partially purified enzyme
  Km: 189 µM
[1]; [4]
  Vmax: 24%

## CCOC(=O)CCCC(C)=O
[3]
  Rel. Activity: 100%

## [Pb+2] [Pb^2+]
[2]; [5]
  Residual Activity: 0%
[2]; [6]
  Residual Activity: 0%
[2]
  Influence on KERed activity (in words): Rapid deactivation

## CCCCCCC(C)=O [drawing 40]
[3]
  Rel. Activity: 54%

## CCOC(=O)CC(=O)C(F)(F)F [drawing 10]
[3]
  Rel. Activity: 21%

## CC(C)=O [Acetone]
[1]
  Km: 1060 µM
[1]; [4]
  Vmax: 97%

## CCCC(=O)CC [drawing 43]
[3]
  Rel. Activity: 4%

## [Ca+2] [Ca^2+]
[2]; [5]
  Residual Activity: 78%
[2]; [6]
  Residual Activity: 68%

## CCCC(=O)CCC [4-heptanone]
[1]; partially purified enzyme
  Km: 5300 µM
[1]; [4]
  Vmax: 9%

## O=CC1CCCCC1
[3]
  Rel. Activity: 29%

## Triton X-100
[2]; Triton X-100 0.1%
  Residual Activity: 100%

## NC(=O)C1=CN([C@@H]2O[C@H](COP(=O)(O)OP(=O)(O)OC[C@H]3O[C@@H](n4cnc5c(N)ncnc54)[C@H](O)[C@@H]3O)[C@@H](O)[C@H]2O)C=CC1 [NADH]
[1]; partially purified enzyme
  Km: 38 µM

## CCN1C(=O)C=CC1=O [N-ethylmaleimide]
[2]; [5]
  Residual Activity: 70%
[2]; [6]
  Residual Activity: 47%

## CCOC(=O)CC(=O)CCl [Ethyl 4-chlor-3-oxo-butanoate]
[1]; partially purified enzyme
  Km: 3560 µM
[1]; [4]
  Vmax: 10%

## CCC(=O)C(C)C [drawing 37]
[3]
  Rel. Activity: 51%

## CCCC(C)=O [2-pentanone]
[3]
  Acceptance as substrate by the KERed (in words): acceptable as substrates
[1]; partially purified enzyme
  Km: 141 µM
[1]; [4]
  Vmax: 62%

## CC(=O)C(C)Cl (centres unmarked) [drawing 34]
[3]
  Rel. Activity: 105%

## CC(=O)C(Cl)Cl [drawing 33]
[3]
  Rel. Activity: 60%

## CCCCCC(=O)CC [3-octanone]
[1]; partially purified enzyme
  Km: 11200 µM
[1]; [4]
  Vmax: 12%

## CCC=O [propionaldehyde]
[3]
  Acceptance as substrate by the KERed (in words): acceptable as substrates

## CC=O [Acetaldehyde]
[3]
  Acceptance as substrate by the KERed (in words): acceptable as substrates
[1]; partially purified enzyme
  Km: 85 µM
[1]; [4]
  Vmax: 129%

## CCC(=O)c1ccccc1 [propiophenone]
[3]
  Acceptance as substrate by the KERed (in words): acceptable as substrates

## CCOC(=O)CC(=O)CCl [drawing 11]
[3]
  Rel. Activity: 92%

## NC(=O)CI [Iodoacetamide]
[2]; [5]
  Residual Activity: 77%
[2]; [6]
  Residual Activity: 17.5%
[2]
  Influence on KERed activity (in words): Strong inhibition

## CCCC(=O)CC [3-hexanone]
[1]; partially purified enzyme
  Km: 840 µM
[1]; [4]
  Vmax: 10%

## CCCCCCC(C)=O [2-octanone]
[3]
  Acceptance as substrate by the KERed (in words): acceptable as substrates
[1]; partially purified enzyme
  Km: 324 µM
[1]; [4]
  Vmax: 62%

## CCCO [1-propanol]
[1]; partially purified enzyme
  Km: 3800 µM
[1]; [4]
  Vmax: 47%

## CCOC(=O)CC(=O)CC [Ethyl 3-oxopentanoate]
[1]; partially purified enzyme
  Km: 6900 µM
[1]; [4]
  Vmax: 17%

## COCC(C)=O [methoxy-2-propanone]
[3]
  Acceptance as substrate by the KERed (in words): acceptable as substrates

## CCC=O [drawing 47]
[3]
  Rel. Activity: 127%

## CCC(=O)c1ccccc1 [drawing 31]
[3]
  Rel. Activity: 0%

## CC(=O)CCCC(=O)O
[3]
  Rel. Activity: 0%

## CCOC(=O)C1CCCCC1=O (centres unmarked)
[3]
  Rel. Activity: 16%

## CC(=O)C(C)C
[3]
  Rel. Activity: 28%

## CC(=O)c1ccccc1Cl
[3]
  Rel. Activity: 0%

## CC(=O)C(Cl)Cl [1,1-Dichloroacetone]
[3]
  Acceptance as substrate by the KERed (in words): acceptable as substrates
[1]; partially purified enzyme
  Km: 176 µM
[1]; [4]
  Vmax: 45%

## CCCCCC(C)=O [2-heptanone]
[1]; partially purified enzyme
  Km: 97 µM
[1]; [4]
  Vmax: 58%

## NC(=O)C1=CN([C@@H]2O[C@H](COP(=O)(O)OP(=O)(O)OC[C@H]3O[C@@H](n4cnc5c(N)ncnc54)[C@H](OP(=O)(O)O)[C@@H]3O)[C@@H](O)[C@H]2O)C=CC1 [NADPH]
[1]; [4]
  Vmax: No Reaction

## CCCCCCCC(C)=O [2-nonanone]
[1]; partially purified enzyme
  Km: 314 µM
[1]; [4]
  Vmax: 45%
[1]; substrate inhibition observed, read-out: Kis (substrate inhibition)
  Ki: 24.9 mM

## CC=O [drawing 46]
[3]
  Rel. Activity: 150%

## CCOC(=O)CC(C)=O [drawing 3]
[3]
  Rel. Activity: 76%

## CC(=O)CC(=O)OC(C)(C)C [drawing 5]
[3]
  Rel. Activity: 137%

## CCOC(=O)CCC(C)=O [drawing 7]
[3]
  Rel. Activity: 76%

## CCOC(=O)CC(=O)CC [drawing 13]
[3]
  Rel. Activity: 32%

## CCOC(=O)CC(C)=O [drawing 4]
[3]
  Rel. Activity: 61%

## CCOC(=O)C(C)C(C)=O (centres unmarked)
[3]
  Rel. Activity: 70%

## CCCCCC(=O)CC [drawing 41]
[3]
  Rel. Activity: 33%

## CCC(=O)CC(C)=O [2,4-hexanedione]
[3]
  Acceptance as substrate by the KERed (in words): acceptable as substrates

## CC(=O)CCC(C)=O
[3]
  Rel. Activity: 46%

## CC[C@H](C)O [(S)-2-butanol]
[1]
  Km: 600 µM
  Vmax: 210%

## CCC(C)=O [drawing 38]
[3]
  Rel. Activity: 48%

## CC(=O)c1cccc(Cl)c1 [3-chloro-aceto-phenone]
[3]
  Acceptance as substrate by the KERed (in words): acceptable as substrates
[1]; partially purified enzyme
  Km: 15 µM
[1]; [4]
  Vmax: 32%

## CC(=O)C(C)(C)O
[3]
  Rel. Activity: 0%

## CC(=O)CC(=O)OC(C)(C)C [Tert.-Butyl 3-oxo-butanoate]
[1]; partially purified enzyme
  Km: 356 µM
[1]; [4]
  Vmax: 71%

## CC(C)C=O [isobutyraldehyde]
[3]
  Acceptance as substrate by the KERed (in words): acceptable as substrates

## CC(C)O [2-propanol]
[1]; partially purified enzyme
  Km: 2210 µM
[1]; [4]
  Vmax: 183%

## CCC(=O)CC(C)=O [drawing 19]
[3]
  Rel. Activity: 46%

## CCCC(C)=O [drawing 39]
[3]
  Rel. Activity: 40%

## CC(=O)CC(C)=O [drawing 18]
[3]
  Rel. Activity: 15%
